# Measured values as given in US20050197274A1, “Solid laundry detergent granules with polyanionic ammonium surfactant and non-aqueous binder” (Unilever Home & Personal Care USA, Division of Conopco, Inc., priority 2004, published 2005).
# Assay: Water solubility: appearance and pH of the aqueous mix while acid and polyamine are combined
# Type: physicochemical
# Conditions: TEPA 2.0 g in water 94.0 g, before LAS acid
# Text: As PAAS began forming, the solution became hazy. Upon further addition of the LAS acid, the hazy solution became a dispersion. Upon standing for hours, the dispersion formed a layer of sediment at the bottom of the beaker. Even a very diluted formulation (such as below 0.1%) was hazy. […] The solution was clear at the all time over the entire pH range, leading to the conclusion that Na-LAS was fully ionized or disassociated. […] Example 1 was repeated, except that fatty acid was used in place of LAS acid.
smiles,measurement,value
"NCCNCCNCCNCCN [TEPA, Tetraethylenepentamine]",Observations (appearance),Clear
